Patent publication US20240082275A1, “Pharmaceutical formulations comprising 5-Chloro-N4-[2-(dimethylphosphoryl)phenyl]-N2-{2-methoxy-4-[4-(4-methylpiperazin-1-yl)piperidin-1-yl]phenyl}pyrimidine-2,4-diamine” (Takeda Pharmaceutical Company Limited, priority 2017, published 2024)

Experiment: Solid-state properties of brigatinib Form A (hygroscopicity, polymorphic conversion)
Type: physicochemical

## COc1cc(N2CCC(N3CCN(C)CC3)CC2)ccc1Nc1ncc(Cl)c(Nc2ccccc2P(C)(C)=O)n1 [Brigatinib Form A, 5-chloro-N4-[2-(dimethylphosphoryl)phenyl]-N2-{2-methoxy-4-[4-(4-methylpiperazin-1-yl)piperidin-1-yl]phenyl}pyrimidine-2,4-diamine]
  hygroscopicity: non-hygroscopic
solvent-mediated or solid-solid transitions, elevated temperature, elevated humidity, mechanical pressure or grinding
  conversion to other polymorphic forms: does not convert to other polymorphic forms
